Assay results: patent US8088817B2, “Pyrrole derivative having, as substituents, ureido group, aminocarbonly group and bicyclic group which may have substituent” (Santen Pharmaceutical Co., Ltd., priority 2008, dated 2012)

Test system: TNF-α-induced IL-6 production in normal human skin fibroblast-derived CCD-1059Sk cells
Test: Test for measurement of inhibitory activity against TNF-α-induced IL-6 production in CCD-1059Sk cells (HTRF Human IL-6 kit)
Format: cell-based
Conditions: test compound at 10 μM; TNF-α-stimulated CCD-1059Sk cells, 16 hours; inhibition ratio which is 100% or more is indicated to be 100%
Protocol: 1. Test for Measurement of Inhibitory Activity Against IL-6 Production
An inhibitory effect on TNF-α-induced IL-6 production in normal human skin fibroblast-derived CCD-1059Sk cells (ATCC No. CRL-2072) was evaluated. The amount of IL-6 was determined by the homogeneous time-resolved fluorescence method using HTRF™ Human IL-6 kit (Cat. No. 62IL6PEB, manufactured by CIS-Bio international, Inc.). Specific test methods will be described below.
(Preparation of Test Compound Solution)
After a test compound was dissolved in dimethyl sulfoxide, the resulting solution was diluted with D-MEM medium containing 0.1% heat-inactivated fetal bovine serum, 0.1 mM MEM non-essential amino acid solution, 100 U/mL penicillin and 100 μg/mL streptomycin (hereinafter referred to as “medium”), whereby a 40 μM test compound solution was prepared.
(Test Method and Measurement Method)
1) CCD-1059Sk cells prepared at a density of 3×10^5 cells/mL were inoculated in a 384-well plate in an amount of 10 μL per well such that the cell density was 3×10^3 cells/well.
2) After the plate was incubated at 37° C. for several hours in a CO2 incubator, 5 μL of the test compound solution was added to each well.
3) After the plate was incubated at 37° C. for 1 hour in a CO2 incubator, 5 μL of a 40 ng/mL TNF-α solution was added to each well.
4) After the plate was incubated at 37° C. for 16 hours in a CO2 incubator, 10 μL of a cryptate-labeled anti-IL-6 antibody and an XL665-labeled anti-IL-6 antibody containing potassium fluoride were added to each well.
5) After the plate was incubated at room temperature for several hours, a fluorescence intensity ratio (665 nm/620 nm) was determined for each well using a multimode plate reader Analyst™ HT (manufactured by Molecular Device Corporation) and Criterion Host software version 2.00 (manufactured by Molecular Device Corporation), and then, the amount of IL-6 was calculated.
6) The same procedures as in the above 1) to 5) were performed except that 0.4% dimethyl sulfoxide was added in place of the test compound, and the obtained result was designated as the control.
7) The same procedures as in the above 1) to 5) were performed except that 0.4% dimethyl sulfoxide and the medium were added in place of the test compound and the TNF-α solution, respectively, and the obtained result was designated as the background.
(Calculation Formula of IL-6 Production Inhibition Ratio)
An IL-6 production inhibition ratio (%) was calculated from the following equation. IL-6 Production Inhibition Ratio(%)=100×{1−[(Amount of IL-6 for Test Compound)−(Amount of IL-6 for Background)]/[(Amount of IL-6 for Control)−(Amount of IL-6 for Background)]} (Evaluation Results)

SMILES	IL-6 production inhibition ratio (%)
NC(=O)Nc1[nH]c(-c2ccc3occc3c2)cc1C(N)=O [Compound No. 1-8, 2-Aminocarbonylamino-5-(benzofuran-5-yl)pyrrole-3-carboxamide]	86
NC(=O)Nc1[nH]c(-c2cc3ccccc3o2)cc1C(N)=O [Compound No. 1-5, 2-Aminocarbonylamino-5-(benzofuran-2-yl)pyrrole-3-carboxamide]	98
Cc1c(-c2cc(C(N)=O)c(NC(N)=O)[nH]2)sc2ccccc12 [Compound No. 1-15, 2-Aminocarbonylamino-5-(3-methylbenzothiophen-2-yl)pyrrole-3-carboxamide]	98
NC(=O)Nc1[nH]c(-c2ccc3sccc3c2)cc1C(N)=O [Compound No. 1-6, 2-Aminocarbonylamino-5-(benzothiophen-5-yl)pyrrole-3-carboxamide]	95
NC(=O)Nc1[nH]c(-c2cccc3c2OCC3)cc1C(N)=O [Compound No. 3-1, 2-Aminocarbonylamino-5-(2,3-dihydrobenzofuran-7)pyrrole-3-carboxamide]	≥ 100
NC(=O)Nc1[nH]c(-c2ccc3ccccc3c2)cc1C(N)=O [Compound No. 1-1, 2-Aminocarbonylamino-5-(2-naphthyl)pyrrole-3-carboxamide]	90
NC(=O)Nc1[nH]c(-c2cccc3c2OCCO3)cc1C(N)=O [Compound No. 1-12, 2-Aminocarbonylamino-5-(2,3-dihydro-1,4-benzodioxin-5-yl)pyrrole-3-carboxamide]	97
